Conditions: Liquid, Vibrating tube method

CCCCCCCCO [octan-1-ol]
mass density [kg/m3]
Conditions | 278.15 K | 288.15 K | 298.15 K | 308.15 K | 318.15 K | 328.15 K | 338.15 K | 348.15 K | 358.15 K
100 kPa | 835.2 | 828.4 | 821.4 | 814.5 | 807.5 | 800.4 | 793.2 | 785.6 | 778
1000 kPa | 835.7 | 829 | 822 | 815.1 | 808.1 | 801.1 | 793.9 | 786.4 | 778.8
5000 kPa | 838 | 831.5 | 824.6 | 817.8 | 811 | 804.1 | 796.9 | 789.8 | 782.3
10000 kPa | 841 | 834.4 | 827.7 | 821.1 | 814.4 | 807.7 | 800.8 | 793.6 | 786.4
15000 kPa | 843.7 | 837.3 | 830.7 | 824.2 | 817.7 | 811.1 | 804.4 | 797.4 | 790.4
20000 kPa | 846.4 | 840.1 | 833.6 | 827.2 | 820.8 | 814.4 | 807.8 | 801 | 794.1
25000 kPa | 849 | 842.8 | 836.4 | 830.1 | 823.8 | 817.5 | 811.1 | 804.5 | 797.7
30000 kPa | 851.5 | 845.5 | 839.1 | 833 | 826.8 | 820.5 | 814.2 | 807.8 | 801.1
35000 kPa | 854 | 848 | 841.8 | 835.7 | 829.6 | 823.5 | 817.3 | 810.9 | 804.5
40000 kPa | 856.4 | 850.5 | 844.4 | 838.4 | 832.4 | 826.4 | 820.3 | 814 | 807.7
45000 kPa | 858.8 | 852.9 | 846.9 | 841 | 835.1 | 829.1 | 823.1 | 817 | 810.8
50000 kPa | 861.1 | 855.3 | 849.4 | 843.5 | 837.7 | 831.9 | 825.9 | 819.9 | 813.6
55000 kPa | 863.4 | 857.6 | 851.7 | 846 | 840.3 | 834.5 | 828.7 | 822.7 | 816.7
60000 kPa | 865.5 | 859.8 | 853.9 | 848.2 | 842.6 | 836.9 | 831.2 | 825.5 | 819.6
